In assay [1] the target is human D2 receptor (short isoform) (Homo sapiens, UniProt P14416). Kind of assay: Receptor Binding Assay: displacement of 3H-spiperone, D2 receptor, for D2/D4 selectivity. The following applies: for D2/D4 (selectivity): ratio D2/D4, GH4 C1 cells with human D2 short vs HEK 298 cells with human D4.2, 3H-spiperone. How it is done:
(§1) The potency of the test compound to reduce ^3 H-spiperone binding directly correlated to its binding affinity for the receptor.
GH4 C1 (rat pituitary) cells stably transfected with the human D2 receptor (short isoform) were grown in CO2 independent media in roller bottles (1500 cm^2) for 10 days. 100 μM ZnSO4 was added to the cells (the D2 promoter being zinc inducible). After 16 hours, fresh media was added to allow the cells to recover for 24 hours. The cells were harvested using versene and then centrifuged in a Sorval centrifuge for 10 minutes, at 5000 rpm (GS3 rotor). Pellets were quickly frozen in liquid nitrogen and stored at -80° C. until used in the binding assays. When used in the assay, cells were thawed on ice for 20 minutes. […] The receptor protein concentration was determined using the Pierce BCA assay.
(§2) The tubes were vortexed and incubated at room temperature for 90 minutes. The binding reaction was stopped by filtering using a Brandell Cell Harvester. The samples were filtered under vacuum over glass fibre filters (Whatman GF/B) presoaked for 2 hours in 0.3% polyethylenimine (PEI) in 50 mM Tris buffer (pH7.4). The filters were then washed 3 times with 5 mL ice cold 50 mM Tris buffer (pH7.4). Individual filter disks were put in scintillation vials (Biovials, Bechman). Ready Protein Plus liquid scintillant (5 mL, Beckman) was added and the vials counted by liquid scintillation spectrophotometry (Beckman LSC 6500) after equilibrating for three hours at room temperature to determine total binding (BT).
This assay employed the same procedures as the non-specific binding assay for D4 with the exception that 2 μM (final conc.) of (-) sulpiride (Research Chemicals Inc.) was used in place of dopamine.
(§3) The incubation was started by the addition to 12×75 mm polypropylene tubes 500 μl (50 μg protein) membrane homogenate to a solution of 400 μl incubation buffer, 100 μl (0.25 final conc.) ^3 H-spiperone (90 Ci/mmol, Amersham, diluted in borosilicate glass vial to) and […] of test compound that was prepared from 1 mM stock dissolved in DMSO and stored at -20° C. in polypropylene cryogenic storage vials until dilution in incubation buffer in borosilicate glass vials. The tubes were vortexed and incubated at room temperature for 90 minutes at which time the binding reaction was stopped by filtering. The filters were washed and counted using the same procedure as in the total binding assay described above to give the displacement binding value (BD).
(§4) IC50 was determined from an inhibition response curve, logit-log plot of %B/BO vs concentration of test compound.
(§5) Ki was calculated by the Cheng and Prustoff transformation: […]
(§6) where [L] is the concentration of ^3 H-spiperone used in the assay and KD is the dissociation constant of ^3 H-spiperone determined independently under the same binding conditions.

The target in assay [2] is T1, human D4 receptor (D4.2 sub-type) (Homo sapiens, UniProt P21917, DEL265-296).
T1 construct: expressed in transfected cells; cell homogenate
T1 sequence (P21917 with tags, fused parts or gaps DEL265-296): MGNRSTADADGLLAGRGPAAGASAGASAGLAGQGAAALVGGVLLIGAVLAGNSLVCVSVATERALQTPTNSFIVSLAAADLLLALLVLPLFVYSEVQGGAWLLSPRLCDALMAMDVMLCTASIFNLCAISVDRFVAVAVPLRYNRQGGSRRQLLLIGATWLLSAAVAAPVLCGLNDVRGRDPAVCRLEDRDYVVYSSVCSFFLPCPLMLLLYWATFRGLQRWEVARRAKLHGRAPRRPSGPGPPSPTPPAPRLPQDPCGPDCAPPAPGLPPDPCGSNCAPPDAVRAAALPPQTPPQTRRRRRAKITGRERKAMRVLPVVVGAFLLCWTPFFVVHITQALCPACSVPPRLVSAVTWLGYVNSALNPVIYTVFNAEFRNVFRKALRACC
Kind of assay: Receptor Binding Assay: displacement of 3H-spiperone, D4 receptor. The following applies: for Ki: 3H-spiperone displacement, HEK 298 cells transfected with human D4.2, read-out: Ki (D4 affinity). How it is done:
as §1
The cells were then centrifuged in a Sorval centrifuge for 10 minutes, 5000 rpm (GS3 rotor) and the pellets quickly frozen in liquid nitrogen and stored at -80° C. until used in binding assay. When used in the assay, cells were thawed on ice for 20 minutes and then 10 mL of incubation buffer (50 mM Tris, 1 mM EDTA, 4 mM MgCl2, 5 mM KCl, 1.5 mM CaCl2, 120 mM NaCl, pH7.4) was added. […] Concentration of receptor protein was determined using the Pierce BCA assay.
as §2
The tubes were vortexed and incubated at room temperature for 90 minutes at which time the binding reaction was stopped by filtering. The filters were washed and counted using the same procedure as in the total binding assay described above to give the non-specific binding value (NSB).
as §3, §4, §5, §6
On the technique in general: In a radioligand displacement assay an active substance lowers the binding of a labelled ligand.

The next assay addresses D4 receptor. The following applies: background; both products approximately; cited from earlier work.
The test system of a further assay is D2 receptor. The settings on record: background; both products; cited from earlier work.

human D2 receptor (short isoform), sequence (P14416 with tags, fused parts or gaps DEL242-270): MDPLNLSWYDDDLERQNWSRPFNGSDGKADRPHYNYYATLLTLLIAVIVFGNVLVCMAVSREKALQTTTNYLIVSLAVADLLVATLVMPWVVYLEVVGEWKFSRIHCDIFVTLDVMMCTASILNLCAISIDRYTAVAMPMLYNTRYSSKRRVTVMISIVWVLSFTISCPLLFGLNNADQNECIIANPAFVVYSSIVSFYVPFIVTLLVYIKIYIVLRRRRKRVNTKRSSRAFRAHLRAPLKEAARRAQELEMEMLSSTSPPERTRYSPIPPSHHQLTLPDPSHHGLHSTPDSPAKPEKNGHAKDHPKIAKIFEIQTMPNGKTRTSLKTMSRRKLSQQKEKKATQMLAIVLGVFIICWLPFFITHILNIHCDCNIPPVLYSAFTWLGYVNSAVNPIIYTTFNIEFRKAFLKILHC

Regarding `CCCCCCN1CCN(C2=Nc3ccccc3Oc3c(Cl)cccc32)CC1` [4-chloro-11-(4-hexyl-1-piperazinyl)dibenz[b,f][1,4]oxazepine], in assay [1], the “D4 selectivity relative to the D2 receptor (in words)” value is “bind to the D4 receptor selectively relative to the D2 receptor”, the “D4 selectivity compared with clozapine (in words)” value was “better D4 selectivity than clozapine” and the “D2/D4 (selectivity)” value came out at 31.8. Also, the Ki in assay [2] was 32 nM.
On to `CCCCCCCCCN1CCN(C2=Nc3ccccc3Oc3c(Cl)cccc32)CC1` [4-chloro-11-(4-nonyl-1-piperazinyl)dibenz[b,f][1,4]oxazepine], for which, in assay [1], the “D4 selectivity relative to the D2 receptor (in words)” value is given as “bind to the D4 receptor selectively relative to the D2 receptor”, the “D4 selectivity compared with clozapine (in words)” value is on record as “better D4 selectivity than clozapine” and the “D2/D4 (selectivity)” value is 3.9. In assay [2], the Ki came out at 229 nM.
Take `CCCCCCCCCN1CCN(C2=Nc3cc(Cl)ccc3Oc3ccccc32)CC1` [8-chloro-11-(4-nonyl-1-piperazinyl)dibenz[b,f][1,4]oxazepine]: in assay [1], the “D4 selectivity relative to the D2 receptor (in words)” value is given as “bind to the D4 receptor selectively relative to the D2 receptor”; the “D4 selectivity compared with clozapine (in words)” value is “better D4 affinity and selectivity than clozapine”; the “D2/D4 (selectivity)” value came to 30.0. Besides, in assay [2], the inhibition constant Ki was determined as 18 nM; the “D4 affinity compared with clozapine (in words)” value was “better D4 affinity and selectivity than clozapine”.
As to `CCCCCCCN1CCN(C2=Nc3ccccc3Oc3ccccc32)CC1` [11-(4-heptyl-1-piperazinyl)dibenz[b,f][1,4]oxazepine], the “D4 selectivity relative to the D2 receptor (in words)” value in assay [1] is listed as “bind to the D4 receptor selectively relative to the D2 receptor”.
For `CCCCCCN1CCN(C2=Nc3ccccc3Oc3ccccc32)CC1` [11-(4-hexyl-1-piperazinyl)dibenz[b,f][1,4]oxazepine], in assay [1], the “D4 selectivity relative to the D2 receptor (in words)” value was “bind to the D4 receptor selectively relative to the D2 receptor”; the “D4 selectivity compared with clozapine (in words)” value was “better D4 affinity and selectivity than clozapine”; the “D2/D4 (selectivity)” value came to 20.0. Also, in assay [2], the Ki stood at 22 nM; the “D4 affinity compared with clozapine (in words)” value is “better D4 affinity and selectivity than clozapine”.
Turning to `CCCCCCCCCN1CCN(C2=Nc3ccccc3Oc3ccccc32)CC1` [11-(4-nonyl-1-piperazinyl)dibenz[b,f][1,4]oxazepine], in assay [1], the “D4 selectivity relative to the D2 receptor (in words)” value is recorded as “bind to the D4 receptor selectively relative to the D2 receptor” and the “D2/D4 (selectivity)” value is recorded as 3.9. Also, the inhibition constant Ki in assay [2] is 109 nM.
Turning to `CCCCCCCCN1CCN(C2=Nc3ccccc3Oc3ccccc32)CC1` [11-(4-octyl-1-piperazinyl)dibenz[b,f][1,4]oxazepine], in assay [1], the “D4 selectivity relative to the D2 receptor (in words)” value was “bind to the D4 receptor selectively relative to the D2 receptor”.
For the molecule `CN1CCN(C2=Nc3cc(Cl)ccc3Oc3ccccc32)CC1` [isoloxapine], the inhibition constant Ki on D4 receptor was ~20 nM. The “preference for binding the D4 receptor relative to the D2 receptor” value in the assay with D2 receptor was “about 10 fold”.

Usually Ki stands for the equilibrium dissociation constant of an inhibitor or competing ligand from its target.

(Values after patent publication US5834459A, “Alkyl-substituted compounds having dopamine receptor affinity” (Allelix Biopharmaceuticals Inc., priority 1996, dated 1998).)
